Results from article PMC10815238, “New N-Terminal Fatty-Acid-Modified Melittin Analogs with Potent Biological Activity” (International Journal of Molecular Sciences, 2024).

Tests used:
E. coli ATCC 25922 = test: Salt sensitivity (MIC in the presence of physiological salts); format: cell-based, Escherichia coli; set-up: key to MIC, NaCl / MIC, KCl / MIC, MgCl2: MIC in μg/mL (two-fold dilutions 256 to 0.25 μg/mL); conditions: for MIC, MgCl2: 1 mM MgCl2, unit not given in Table 4; for MIC, FeCl3: 4 mM FeCl3, unit not given in Table 4; for MIC, KCl: 4.5 mM KCl; for MIC, KCl / MIC, NaCl: unit not given in Table 4; for MIC, NaCl: 150 mM NaCl; for MIC, Control: no added salt, unit not given in Table 4 (Table 3 MIC in μg/mL)
Experimental: (§1) MIC was determined using the broth microdilution method with minor modification. In brief, bacteria (S. aureus ATCC 43300, E. faecalis ATCC 29212, E. coli ATCC 25922, P. aeruginosa ATCC 27853, L. monocytogenes CVCC 3764, B. cereus CVCC 4101, S. Castellani CGMCC 1.1869, and the multidrug-resistant E. coli strain) were cultured in nutrient broth (NB) medium (Macklin, Shanghai, China) to the logarithmic phase and diluted to 1 × 10^6 colony forming units (CFUs)/mL. The MDLs were dissolved to a final concentration of 256~0.25 μg/mL in NB medium using two-fold dilutions. A total of 50 μL of different concentrations of the MDL solutions and an equal volume of bacterial suspension were added to a 96-well plate, which was then incubated at 37 °C for 18 h. The minimum concentrations of the MDLs with no visible growth of bacteria were defined as the corresponding MICs. Media containing bacteria without the MDLs were set as the negative control. Each measurement was performed independently three times.
(§2) This was carried out in triplicate and tested at least twice.

S. aureus ATCC 43300 = test: as above; format: cell-based, Staphylococcus aureus; set-up: key: MIC in μg/mL (two-fold dilutions 256 to 0.25 μg/mL); conditions: for MIC, MgCl2: 1 mM MgCl2, unit not given in Table 4; for MIC, FeCl3: 4 mM FeCl3, unit not given in Table 4; for MIC, KCl: 4.5 mM KCl; for MIC, KCl / MIC, NaCl: unit not given in Table 4; for MIC, NaCl: 150 mM NaCl; for MIC, Control: no added salt, unit not given in Table 4 (Table 3 MIC in μg/mL)
Experimental: as §1, §2

[1] = CD measurements of secondary structure; format: physicochemical; conditions: 0.5 mg/mL, 25 °C
Experimental: The CD spectra of the MDLs were measured at 25 °C on a Chirascan spectrometer (Applied Photophysics, Surrey, UK) using a quartz cell with a 1.0 mm path length, recording from 180 to 260 nm. A scanning speed of 50 nm/min was used and the bandwidth was 1 nm. The optical path and slit width were 0.1 cm and 0.1 nm, respectively. […], 50% TFE (Macklin, Shanghai, China) was used to mimic the hydrophobic condition of the microbial membrane, and 25 mM SDS (Macklin, Shanghai, China) micelles were used to mimic the negatively charged prokaryotic membrane. The observed ellipticity was converted to molar ellipticity using the following equation: θ=θobs(MRW/10×c×l) where [θ] is the molar ellipticity (deg·cm^2·dmol^−1), θobs is the observed ellipticity corrected for the buffer at a given wavelength (mdeg), MRW is the mean residual molecular weight (molecular weight/number of amino acids), c is the peptide concentration (mg/mL), and l is the path length (cm). Assuming lipopeptides were a two-state model, the percentage in the α-helix structure of the MDLs was calculated using the following equation: α-helical content=−([θ]222 +2000)/30,000×100%

[2] = Hydrophobicity assay (RP-HPLC retention time); format: physicochemical; conditions: chromatographic, ChromCore120 C18 column 4.6 x 250 mm 5 μm; 0.1 mg/mL in deionized water; A 0.1% TFA in water, B 0.1% TFA in acetonitrile; 5% B to 90% B over 30 min; 1 mL/min; UV 220 nm; three independent experiments
Description: The hydrophobicity, amphipathicity, and positive charge distribution of lipopeptides are crucial for their antimicrobial activities. Among these, hydrophobicity has been deemed essential for promoting a hydrophobic interaction with the lipid bilayer, leading to membrane disruption, cytoplasm leakage, and eventual cell death. Lipopeptides with different peptide sequences and chain lengths usually show different hydrophobicities, generating different RTs in the RP-HPLC analysis. The more hydrophobic the lipopeptide, the longer the RT on the column.
Each MDL was dissolved and diluted to 0.1 mg/mL in deionized water (obtained in-house) and then subjected to RP-HPLC on a ChromCore120 C18 column (4.6 × 250 mm, 5 μm) (NanoChrom, Suzhou, China) using 0.1% trifluoroacetic acid (TFA) (Macklin, Shanghai, China) in water as solvent A and 0.1% TFA in acetonitrile (Merck, Darmstadt, Germany) as solvent B. The elution gradient was as follows: 5% B to 90% B over 30 min, 90% B maintained for 2 min, and 90% B to 5% B over 1 min. The flow rate was 1 mL/min and measurements were taken at 220 nm. The retention time was recorded for each MDL.

CCCCCCCCCCCC(=O)NCC(=O)N[C@H](C(=O)NCC(=O)N[C@@H](C)C(=O)N[C@H](C(=O)N[C@@H](CC(C)C)C(=O)N[C@@H](CCCCN)C(=O)N[C@H](C(=O)N[C@@H](CC(C)C)C(=O)N[C@H](C(=O)N[C@H](C(=O)NCC(=O)N[C@@H](CC(C)C)C(=O)N1CCC[C@H]1C(=O)N[C@@H](C)C(=O)N[C@@H](CC(C)C)C(=O)N[C@H](C(=O)N[C@@H](CO)C(=O)N[C@@H](Cc1c[nH]c2ccccc12)C(=O)N[C@H](C(=O)N[C@@H](CCCCN)C(=O)N[C@@H](CCCNC(=N)N)C(=O)N[C@@H](CCCCN)C(=O)N[C@@H](CCCNC(=N)N)C(=O)N[C@@H](CCC(N)=O)C(=O)N[C@@H](CCC(N)=O)C(N)=O)[C@@H](C)CC)[C@@H](C)CC)[C@@H](C)O)[C@@H](C)O)C(C)C)C(C)C)[C@@H](C)CC [Peptide C12-Mel]
MIC, MgCl2 (E. coli ATCC 25922): 128
MIC, FeCl3 (E. coli ATCC 25922): 128
MIC, KCl (E. coli ATCC 25922): 32
MIC, NaCl (E. coli ATCC 25922): 32
MIC, MgCl2 (S. aureus ATCC 43300): 64
MIC, FeCl3 (S. aureus ATCC 43300): 64
MIC, KCl (S. aureus ATCC 43300): 32
MIC, NaCl (S. aureus ATCC 43300): 16
MIC, Control (S. aureus ATCC 43300): 8
α-Helix, % ([1]; 25 mM SDS): 15.9%
β-Fold, % ([1]; 25 mM SDS): 29.5%
α-Helix, % ([1]; 50% TFE): 19%
β-Fold, % ([1]; 50% TFE): 21.5%
α-Helix, % ([1]; PBS Buffer): 11.5%
β-Fold, % ([1]; PBS Buffer): 31.3%
RT, Min (RP-HPLC retention time, measure of hydrophobicity) [2]: 23.344 ± 0.004 min

CCCCCCCCCCCCCC(=O)NCC(=O)N[C@H](C(=O)NCC(=O)N[C@@H](C)C(=O)N[C@H](C(=O)N[C@@H](CC(C)C)C(=O)N[C@@H](CCCCN)C(=O)N[C@H](C(=O)N[C@@H](CC(C)C)C(=O)N[C@H](C(=O)N[C@H](C(=O)NCC(=O)N[C@@H](CC(C)C)C(=O)N1CCC[C@H]1C(=O)N[C@@H](C)C(=O)N[C@@H](CC(C)C)C(=O)N[C@H](C(=O)N[C@@H](CO)C(=O)N[C@@H](Cc1c[nH]c2ccccc12)C(=O)N[C@H](C(=O)N[C@@H](CCCCN)C(=O)N[C@@H](CCCNC(=N)N)C(=O)N[C@@H](CCCCN)C(=O)N[C@@H](CCCNC(=N)N)C(=O)N[C@@H](CCC(N)=O)C(=O)N[C@@H](CCC(N)=O)C(N)=O)[C@@H](C)CC)[C@@H](C)CC)[C@@H](C)O)[C@@H](C)O)C(C)C)C(C)C)[C@@H](C)CC [Peptide C14-Mel]
MIC, MgCl2 (E. coli ATCC 25922): 256
MIC, FeCl3 (E. coli ATCC 25922): 256
MIC, KCl (E. coli ATCC 25922): 64
MIC, NaCl (E. coli ATCC 25922): 128
MIC, Control (E. coli ATCC 25922): 32
MIC, MgCl2 (S. aureus ATCC 43300): 256
MIC, FeCl3 (S. aureus ATCC 43300): 256
MIC, KCl (S. aureus ATCC 43300): 64
MIC, NaCl (S. aureus ATCC 43300): 64
MIC, Control (S. aureus ATCC 43300): 32
α-Helix, % ([1]; 25 mM SDS): 15.5%
β-Fold, % ([1]; 25 mM SDS): 31.7%
α-Helix, % ([1]; 50% TFE): 16%
β-Fold, % ([1]; 50% TFE): 25.2%
α-Helix, % ([1]; PBS Buffer): 12%
β-Fold, % ([1]; PBS Buffer): 31%
RT, Min (RP-HPLC retention time, measure of hydrophobicity) [2]: 25.621 ± 0.002 min

CCCCCCCCCCCCCCCC(=O)NCC(=O)N[C@H](C(=O)NCC(=O)N[C@@H](C)C(=O)N[C@H](C(=O)N[C@@H](CC(C)C)C(=O)N[C@@H](CCCCN)C(=O)N[C@H](C(=O)N[C@@H](CC(C)C)C(=O)N[C@H](C(=O)N[C@H](C(=O)NCC(=O)N[C@@H](CC(C)C)C(=O)N1CCC[C@H]1C(=O)N[C@@H](C)C(=O)N[C@@H](CC(C)C)C(=O)N[C@H](C(=O)N[C@@H](CO)C(=O)N[C@@H](Cc1c[nH]c2ccccc12)C(=O)N[C@H](C(=O)N[C@@H](CCCCN)C(=O)N[C@@H](CCCNC(=N)N)C(=O)N[C@@H](CCCCN)C(=O)N[C@@H](CCCNC(=N)N)C(=O)N[C@@H](CCC(N)=O)C(=O)N[C@@H](CCC(N)=O)C(N)=O)[C@@H](C)CC)[C@@H](C)CC)[C@@H](C)O)[C@@H](C)O)C(C)C)C(C)C)[C@@H](C)CC [Peptide C16-Mel]
MIC, MgCl2 (E. coli ATCC 25922): >256
MIC, FeCl3 (E. coli ATCC 25922): >256
MIC, KCl (E. coli ATCC 25922): 256
MIC, NaCl (E. coli ATCC 25922): >256
MIC, Control (E. coli ATCC 25922): 128
MIC, MgCl2 (S. aureus ATCC 43300): >256
MIC, FeCl3 (S. aureus ATCC 43300): >256
MIC, KCl (S. aureus ATCC 43300): 256
MIC, NaCl (S. aureus ATCC 43300): 128
MIC, Control (S. aureus ATCC 43300): 64
α-Helix, % ([1]; 25 mM SDS): 15.2%
β-Fold, % ([1]; 25 mM SDS): 33%
α-Helix, % ([1]; 50% TFE): 14.3%
β-Fold, % ([1]; 50% TFE): 26.8%
α-Helix, % ([1]; PBS Buffer): 12.5%
β-Fold, % ([1]; PBS Buffer): 30.4%
RT, Min (RP-HPLC retention time, measure of hydrophobicity) [2]: 26.892 ± 0.005 min
